How the values were obtained:
[1] = Stability in mouse liver microsomes assessed as parent compound remaining incubated for 10 mins; type: ADME, microsome
[2] = target: T1, Oxysterols receptor LXR-alpha (Homo sapiens, UniProt Q13133); assay: Agonist activity at GAL4-tagged human LXRalpha assessed as receptor activation expressed in African green monkey CV1 cells by luciferase reporter gene assay; type: cell-based
T1 sequence (Q13133 whole entry): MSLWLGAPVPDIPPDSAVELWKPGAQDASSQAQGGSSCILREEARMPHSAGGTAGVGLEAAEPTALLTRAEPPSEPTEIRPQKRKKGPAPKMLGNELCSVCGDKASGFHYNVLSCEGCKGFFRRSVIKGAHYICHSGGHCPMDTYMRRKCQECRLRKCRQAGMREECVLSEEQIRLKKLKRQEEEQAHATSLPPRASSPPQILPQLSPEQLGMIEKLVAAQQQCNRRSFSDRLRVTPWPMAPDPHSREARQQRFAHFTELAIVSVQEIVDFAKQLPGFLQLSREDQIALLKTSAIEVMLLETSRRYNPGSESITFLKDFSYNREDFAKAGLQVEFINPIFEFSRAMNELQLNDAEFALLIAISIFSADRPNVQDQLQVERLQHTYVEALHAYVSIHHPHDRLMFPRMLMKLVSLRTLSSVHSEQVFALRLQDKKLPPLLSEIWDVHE

[3] = Stability in human liver microsomes assessed as parent compound remaining incubated for 10 mins; type: ADME, microsome; conditions: for Stability: microsomes, 10 min
[4] = target: T2, Nuclear receptor subfamily 1 group I member 2 (Homo sapiens, UniProt O75469); assay: (§1) Transactivation of PXR in human HepG2 cells by receptor transactivation assay relative to untreated control; type: ADME, cell-based; conditions: hepg2
T2 sequence (O75469 whole entry): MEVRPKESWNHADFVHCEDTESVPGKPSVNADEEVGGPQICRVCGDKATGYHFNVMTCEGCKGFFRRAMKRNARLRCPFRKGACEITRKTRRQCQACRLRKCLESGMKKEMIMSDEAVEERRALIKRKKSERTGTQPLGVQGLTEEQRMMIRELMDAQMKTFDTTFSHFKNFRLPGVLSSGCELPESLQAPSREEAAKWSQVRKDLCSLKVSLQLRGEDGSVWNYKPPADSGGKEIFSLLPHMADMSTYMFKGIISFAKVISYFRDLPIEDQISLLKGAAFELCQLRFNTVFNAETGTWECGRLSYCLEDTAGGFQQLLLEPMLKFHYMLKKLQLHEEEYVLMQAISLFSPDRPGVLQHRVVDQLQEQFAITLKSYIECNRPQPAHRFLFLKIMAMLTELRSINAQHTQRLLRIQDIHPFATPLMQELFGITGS

[5] = target: T3, Oxysterols receptor LXR-beta (Homo sapiens, UniProt P55055); assay: Agonist activity at GAL4-tagged human LXRbeta assessed as receptor activation expressed in African green monkey CV1 cells by luciferase reporter gene assay; type: cell-based
T3 sequence (P55055 whole entry): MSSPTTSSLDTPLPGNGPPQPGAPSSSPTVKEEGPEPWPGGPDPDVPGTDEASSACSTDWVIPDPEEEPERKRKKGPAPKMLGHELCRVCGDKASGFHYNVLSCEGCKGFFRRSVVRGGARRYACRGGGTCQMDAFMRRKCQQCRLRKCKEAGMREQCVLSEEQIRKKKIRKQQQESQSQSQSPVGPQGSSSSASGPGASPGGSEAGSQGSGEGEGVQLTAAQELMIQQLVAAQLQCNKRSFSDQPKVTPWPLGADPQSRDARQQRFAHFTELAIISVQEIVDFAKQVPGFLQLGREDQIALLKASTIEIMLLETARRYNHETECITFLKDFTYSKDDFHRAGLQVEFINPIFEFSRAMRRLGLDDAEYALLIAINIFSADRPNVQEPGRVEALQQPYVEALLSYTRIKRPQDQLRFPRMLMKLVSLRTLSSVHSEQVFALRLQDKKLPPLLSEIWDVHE

[6] = target: T2, Nuclear receptor subfamily 1 group I member 2; assay: Transactivation of PXR in human HepG2 cells by receptor transactivation assay; type: ADME, cell-based
[7] = Drug level in Balb/c mouse at 100 mg/kg, po BID measured at 23.5 hrs on day 1; type: ADME, organism-based; conditions: in vivo, read-out: Drug uptake
[8] = Drug level in Balb/c mouse at 100 mg/kg, po BID measured at 7.5 hrs on day 1; type: ADME, organism-based; conditions: in vivo, read-out: Drug uptake
[9] = Drug level in Balb/c mouse at 100 mg/kg, po BID measured at 1 hr on day 1; type: ADME, organism-based; conditions: in vivo, read-out: Drug uptake
[10] = Drug level in Balb/c mouse at 30 mg/kg, po BID measured at 23.5 hrs on day 1; type: ADME, organism-based; conditions: in vivo, read-out: Drug uptake
[11] = Drug level in Balb/c mouse at 100 mg/kg, po BID measured at 7.5 hrs on day 5; type: ADME, organism-based; conditions: in vivo, read-out: Drug uptake
Mus musculus [12] = assay: Inhibition of IL-2/IL-23 induced IL-17 production in C57BL/6 mouse challenged 3 times with IL-2/IL-23 (at 0, 7 and 23 hrs) after IL-2 alone priming (-24 hrs) at 50 mg/kg, po dosed 30 mins prior to each IL-2/IL-23 co-administration and measured after 7 hrs post last IL-2/IL-23 challenge; type: functional; conditions: C57BL/6, po
[13] = Drug level in Balb/c mouse at 30 mg/kg, po BID measured at 1 hr on day 5; type: ADME, organism-based; conditions: in vivo, read-out: Drug uptake
[14] = Drug level in Balb/c mouse at 30 mg/kg, po BID measured at 7.5 hrs on day 5; type: ADME, organism-based; conditions: in vivo, read-out: Drug uptake
PXR (NR1I2) = target: T4, PXR (NR1I2) (Homo sapiens, UniProt O75469); assay: as §1; type: ADME, cell-based; conditions: HepG2 cells, read-out: %max
T4 sequence (O75469 whole entry): T2 sequence (O75469 whole entry)

[15] = Drug level in Balb/c mouse at 30 mg/kg, po BID measured at 1 hr on day 1; type: ADME, organism-based; conditions: in vivo, read-out: Drug uptake
[16] = Drug level in Balb/c mouse at 30 mg/kg, po BID measured at 7.5 hrs on day 1; type: ADME, organism-based; conditions: in vivo, read-out: Drug uptake
[17] = Drug level in Balb/c mouse at 100 mg/kg, po BID measured at 1 hr on day 5; type: ADME, organism-based; conditions: in vivo, read-out: Drug uptake
[18] = Drug level in Balb/c mouse at 30 mg/kg, po BID measured at 23.5 hrs on day 5; type: ADME, organism-based; conditions: in vivo, read-out: Drug uptake
Mus musculus [19] = assay: Inhibition of IL-2/IL-23 induced IL-17 production in C57BL/6 mouse challenged 3 times with IL-2/IL-23 (at 0, 7 and 23 hrs) after IL-2 alone priming (-24 hrs) at 25 mg/kg, po dosed 30 mins prior to each IL-2/IL-23 co-administration and measured after 7 hrs post last IL-2/IL-23 challenge; type: functional; conditions: C57BL/6, po
[20] = target: T5, Nuclear receptor ROR-gamma (Homo sapiens, UniProt P51449); assay: Inverse agonist activity at Gal4-tagged human RORgammat ligand binding domain expressed in human Jurkat cells by native IL17 promoter driven luciferase reporter gene assay; type: cell-based
T5 sequence (P51449 whole entry): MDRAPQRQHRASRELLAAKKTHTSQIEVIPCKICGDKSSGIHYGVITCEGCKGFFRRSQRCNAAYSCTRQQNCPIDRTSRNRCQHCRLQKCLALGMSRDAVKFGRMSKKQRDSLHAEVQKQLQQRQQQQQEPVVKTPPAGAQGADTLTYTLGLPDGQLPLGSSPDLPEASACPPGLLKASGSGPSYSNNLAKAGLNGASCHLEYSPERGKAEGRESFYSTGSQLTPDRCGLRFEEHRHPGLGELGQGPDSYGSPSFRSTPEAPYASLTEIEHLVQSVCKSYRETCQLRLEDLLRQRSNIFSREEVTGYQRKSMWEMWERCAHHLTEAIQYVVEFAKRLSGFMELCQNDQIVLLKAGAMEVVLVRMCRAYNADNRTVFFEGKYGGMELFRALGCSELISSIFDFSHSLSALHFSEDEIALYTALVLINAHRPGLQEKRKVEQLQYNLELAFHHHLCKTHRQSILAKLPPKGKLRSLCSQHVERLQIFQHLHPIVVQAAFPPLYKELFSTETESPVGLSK

[21] = target: T6, Nuclear receptor ROR-alpha (Homo sapiens, UniProt P35398); assay: Inverse agonist activity at Gal4-tagged human RORalpha ligand binding domain expressed in human Jurkat cells by native IL17 promoter driven luciferase reporter gene assay; type: cell-based
T6 sequence (P35398 whole entry): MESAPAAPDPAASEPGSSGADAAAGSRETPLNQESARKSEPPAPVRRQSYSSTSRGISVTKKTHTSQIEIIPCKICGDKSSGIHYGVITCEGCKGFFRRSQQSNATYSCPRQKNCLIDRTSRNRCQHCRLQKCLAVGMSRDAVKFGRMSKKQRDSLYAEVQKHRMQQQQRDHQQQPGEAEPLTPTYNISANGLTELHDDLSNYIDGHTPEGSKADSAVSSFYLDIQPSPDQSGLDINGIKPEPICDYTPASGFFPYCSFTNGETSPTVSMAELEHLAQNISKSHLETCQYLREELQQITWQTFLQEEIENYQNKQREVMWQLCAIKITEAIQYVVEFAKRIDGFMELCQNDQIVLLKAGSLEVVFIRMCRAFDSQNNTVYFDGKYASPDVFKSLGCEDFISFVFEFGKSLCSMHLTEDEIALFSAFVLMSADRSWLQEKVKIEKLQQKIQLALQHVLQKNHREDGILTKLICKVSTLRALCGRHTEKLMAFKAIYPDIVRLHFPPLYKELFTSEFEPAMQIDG

[22] = target: T7, Nuclear receptor ROR-beta (Homo sapiens, UniProt Q92753); assay: Inverse agonist activity at Gal4-tagged human RORbeta ligand binding domain expressed in human Jurkat cells by native IL17 promoter driven luciferase reporter gene assay; type: cell-based
T7 sequence (Q92753 whole entry): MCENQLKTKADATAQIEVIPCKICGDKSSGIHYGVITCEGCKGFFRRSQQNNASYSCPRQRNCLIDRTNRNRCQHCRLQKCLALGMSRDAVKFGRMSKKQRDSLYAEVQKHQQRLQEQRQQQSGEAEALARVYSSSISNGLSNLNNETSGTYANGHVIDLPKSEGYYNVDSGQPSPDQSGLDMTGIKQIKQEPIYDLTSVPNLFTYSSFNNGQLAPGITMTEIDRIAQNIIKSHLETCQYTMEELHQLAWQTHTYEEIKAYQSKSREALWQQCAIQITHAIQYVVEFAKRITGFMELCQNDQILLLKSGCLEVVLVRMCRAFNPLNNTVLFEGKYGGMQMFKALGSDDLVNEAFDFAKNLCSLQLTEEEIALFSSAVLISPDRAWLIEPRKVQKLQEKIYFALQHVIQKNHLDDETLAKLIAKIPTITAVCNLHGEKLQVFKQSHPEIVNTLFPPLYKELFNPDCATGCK

[23] = target: T6, Nuclear receptor ROR-alpha; assay: Agonist activity at Gal4-tagged human RORalpha ligand binding domain expressed in human Jurkat cells by native IL17 promoter driven luciferase reporter gene assay; type: cell-based
[24] = target: T5, Nuclear receptor ROR-gamma; assay: Agonist activity at Gal4-tagged human RORgammat ligand binding domain expressed in human Jurkat cells by native IL17 promoter driven luciferase reporter gene assay; type: cell-based
[25] = target: T7, Nuclear receptor ROR-beta; assay: Agonist activity at Gal4-tagged human RORbeta ligand binding domain expressed in human Jurkat cells by native IL17 promoter driven luciferase reporter gene assay; type: cell-based
[26] = liver microsomes, read-out: Stability

Structure (SMILES): CC(C)(O)CNC(=O)CC1CSc2cc(C(O)(C(F)(F)F)C(F)(F)F)ccc2N1S(=O)(=O)c1ccc(F)cc1 (stereo in doubt; 31)
- Stability ([1]; microsomes, 10 min): 1%
- EC50 [2]: 0.315 µM
- Stability [3]: 2%
- %max [4]: 70%
- EC50 [5]: 3.71 µM
- EC50 [6]: 1.35 µM

Structure (SMILES): CC(C)(O)[C@H](F)CNC(=O)C[C@@H]1CCc2cc(C(O)(C(F)(F)F)C(F)(F)F)ccc2N1S(=O)(=O)c1ccc(F)cc1
- concentration at 23.5 h [7]: 19 nM
- concentration at 7.5 h [8]: 2460 nM
- remaining at 10 min [1, 26]: 62%
- concentration at 1 h [9]: 13900 nM
- concentration at 23.5 h [10]: 5 nM
- concentration at 7.5 h [11]: 61 nM
- inhibition in vivo at 50 mg/kg (Mus musculus [12]): 98%
- EC50 [2]: > 7.5 µM
- concentration at 1 h [13]: 555 nM
- remaining at 10 min [3, 26]: 56%
- concentration at 7.5 h [14]: 21 nM
- Emax (PXR (NR1I2)): 100%
- EC50 [5]: > 7.5 µM
- concentration at 1 h [15]: 3490 nM
- concentration at 7.5 h [16]: 134 nM
- concentration at 1 h [17]: 2830 nM
- concentration at 23.5 h [18]: 5 nM
- EC50 [6]: 2 µM
- inhibition in vivo at 25 mg/kg (Mus musculus [19]): 74%

Structure (SMILES): O=S(=O)(c1ccc(F)cc1)N1CCSc2cc(C(O)(C(F)(F)F)C(F)(F)F)ccc21
- EC50 [20]: 0.165 µM
- EC50 [21]: > 2 µM
- EC50 [2]: 0.19 µM
- EC50 [22]: > 2 µM
- EC50 [23]: > 4 µM
- EC50 [24]: > 4 µM
- Emax (PXR (NR1I2)): 100%
- EC50 [5]: 0.185 µM
- EC50 [25]: > 4 µM
- EC50 [6]: 0.02 µM

Structure (SMILES): CC(C)(O)CNC(=O)CC1CSc2cc(C(O)(C(F)(F)F)C(F)(F)F)ccc2N1S(=O)(=O)c1ccc(F)cc1 (stereo in doubt; 30)
- EC50 [2]: > 7.5 µM
- Stability [3]: 5%
- %max [4]: 90%
- EC50 [5]: > 7.5 µM
- EC50 [6]: 1.1 µM

From ChEMBL document CHEMBL4177737, “Identification of bicyclic hexafluoroisopropyl alcohol sulfonamides as retinoic acid receptor-related orphan receptor gamma (RORγ/RORc) inverse agonists. Employing structure-based drug design to improve pregnane X receptor (PXR) selectivity” (Bioorg Med Chem Lett, 2018)
